Structures are written as SMILES. *1 amine or outer side, *2 acyl side, *3 side chain or, on linkers, in order; H or OH if unused. Where a SMILES comes first, the peptide text is derived from it. Bridges are numbered along the chain shown (N, C = ends). [ ]: non-standard residue; d: D form. X3 = Cc1cccc(-c2cccc3c(C[C@H](N[*:1])C(=O)[*:2])c[nH]c23)c1; Trp(7-Ph) = N[C@@H](Cc1c[nH]c2c(-c3ccccc3)cccc12)C(=O)O; Ala(quinolin-3-yl) = N[C@@H](Cc1cnc2ccccc2c1)C(=O)O; 2Nal = N[C@@H](Cc1ccc2ccccc2c1)C(=O)O; AEF = NCCOc1ccc(C[C@H](N)C(=O)O)cc1; Pen = CC(C)(S)[C@H](N)C(=O)O; αMeK = C[C@](N)(CCCCN)C(=O)O; Thp = NC1(C(=O)O)CCOCC1 Bounds are passed on as bounds.

One data set in a line: Stability in rat plasma. The format is in vitro ADME. The note with it: both sexes, SD rat plasma, EDTA, 37° C., up to 24 hours, read-out: t1/2: Rat Plasma EDTA. The procedure: Peptides of interest (20 μM) were incubated with pre-warmed rat plasma (SD rat, mixed gender pooled, EDTA, filtered through 0.22 μm, BioreclamationIVT) at 37° C. Aliquots were taken at various time points up to 24 hours (e.g. 0, 0.25, 1, 3, 6 and 24 hr), and immediately quenched with 4 volumes of organic solvent (acetonitrile/methanol (1:1) and 0.1% formic acid, containing 1 μM internal standard). Quenched samples were stored at 4° C. until the end of the experiment and centrifuged at 4,000 rpm for 10 minutes. The supernatant were diluted 1:1 with deionized water and analyzed using LC-MS. Percentage remaining at each time point was calculated based on the peak area ratio (analyte over internal standard) relative to the initial level at time zero. Half-lives were calculated by fitting to a first-order exponential decay equation using GraphPad.

A short description of data set [1]: Stability in cynomolgus monkey fecal homogenate (anaerobic). The format is in vitro ADME. The note with it: pH 6.8, 20% cynomolgus monkey fecal homogenate, 37° C., up to 24 hours, read-out: t1/2: Monkey Feces anaerobic (converted). The procedure:
(§1) Studies were carried out in human or cynomolgus monkey fecal homogenate to evaluate gastrointestinal stability of the peptide inhibitors of the present invention.
(§2) Fecal homogenate ([…]) was prepared by adding 4 mL of growth medium (1 liter contains 2 g peptone water powder, 2 g yeast extract, 0.1 g NaCl, 0.04 g KH2PO4, 0.01 g CaCl2.6H2O, 0.01 g MgSO4.7H2O, 2 mL Tween 80, 0.5 g bile salts, 0.5 g L-cysteine HCl, 2 g NaHCO3, and 10 μL Vitamin K, pH adjusted to 6.8, and sterilized by filtration through a 0.22 μm filter) to every gram of feces (pooled freshly collected human or cynomolgus monkey feces). The suspension was vortexed to break up large clumps, and homogenized using a bead mill homogenizer. Centrifuged the homogenate at 2800×g for 15 min. The supernatant is taken out and used for incubations. DMSO stocks (10 mM) were first prepared for the test compounds. Incubations were performed in an anaerobic chamber conditioned at 37° C. Aliquots of the DMSO solutions were dosed into 1.0 mL aliquots of 20% fecal homogenate, which are pre-warmed to 37° C. The final test compound concentration was 20 μM. At each timepoint (0, 20 min, 1, 3, 6, or 24 hours), 100 μL aliquot of each incubation mixture is taken out and added to separate tubes containing 300 μL of 50% acetonitrile/50% methanol and an internal standard to terminate the reaction. Samples were taken out of the anaerobic chamber and stored at 4° C. until the end of the experiment. After the final timepoint is sampled, the tubes were mixed and then centrifuged at 3,000 rpm for 10 minutes. Aliquots of the supernatant were removed, diluted 1:1 into distilled water containing 0.1% formic acid, and analyzed by LC/MS/MS. Percent remaining at each timepoint was calculated based on the peak area response ratio of test to compound to internal standard. Time 0 was set to 100%, and all later timepoints were calculated relative to time 0. Half-lives were calculated by fitting to a first-order exponential decay equation using Graphpad or Excel.

The nature of data set [2]: Stability in human fecal homogenate (anaerobic). In kind it is in vitro ADME. The note with it: pH 6.8, 20% human fecal homogenate, 37° C., up to 24 hours, read-out: t1/2: Human Feces anaerobic. The procedure: as §1, §2
Data set [3] in a line: Stability in simulated intestinal fluid (SIF). The format is in vitro ADME. The following applies: 100 fold dilution of standard SIF concentration, 37° C., 20 μM. The procedure:
Studies were carried out in simulated intestinal fluid (SIF) and simulated gastric fluid (SGF) to evaluate gastric stability of the peptide inhibitors of the present invention. In addition, studies were carried out to assess redox stability of the peptide inhibitors of the present invention.
SIF was prepared by adding 6.8 g of monobasic potassium phosphate and 10.0 g of pancreatin to 1.0 L of water. After dissolution, the pH was adjusted to 6.8 using NaOH. DMSO stocks (2 mM) were first prepared for the test compounds. Aliquots of the DMSO solutions were dosed into 6 individual tubes, each containing 0.5 mL of SIF, which is pre-warmed to 37° C. The final test compound concentration was 20 μM. The vials were kept in a benchtop Thermomixer® for the duration of the experiment. At each timepoint (0, 5, 10, 20, 40, 60, or 360 minutes or 24 hours), 1.0 mL of acetonitrile containing 1% formic acid was added to one vial to terminate the reaction. Samples were stored at 4° C. until the end of the experiment. After the final timepoint is sampled, the tubes were mixed and then centrifuged at 3,000 rpm for 10 minutes. Aliquots of the supernatant were removed, diluted 1:1 into distilled water containing internal standard, and analyzed by LCMS/MS. Percent remaining at each timepoint was calculated based on the peak area response ratio of test to compound to internal standard. Time 0 was set to 100%, and all later timepoints were calculated relative to time 0. Half-lives were calculated by fitting to a first-order exponential decay equation using Graphpad.

For data set [4], the system named is Natural killer (NK) cells. The format is cell-based, human. The text has this:
Where not shown, data was not yet determined.

The mark [5] stands for this setting: 20% fecal homogenate (supernatant).

The term IC50 denotes the point on the concentration scale where inhibition reaches its midpoint. Turning to `CC(=O)NCCCC[C@@H]1NC(=O)[C@H](Cc2c[nH]c3c(-c4ccccc4)cccc23)NC(=O)[C@H]([C@@H](C)O)NC(=O)[C@H](CC(N)=O)NC(=O)[C@@H](NC(C)=O)C(C)(C)SSC(C)(C)[C@@H](C(=O)N[C@@H](Cc2ccc(OCCN)cc2)C(=O)N[C@@H](Cc2cnc3ccccc3c2)C(=O)N[C@@](C)(CCCCN)C(=O)N[C@@H](CCCCNC(C)=O)C(=O)N[C@@H](CC(N)=O)C(=O)N[C@H](CCCCN)C(N)=O)NC1=O` [Peptide 14, Ac-[Pen]-N-T-[W(7-Ph)]-[Lys(Ac)]-[Pen]-Phe[4-(2-aminoethoxy)]-[3Quin]-[a-MeLys]-[Lys(Ac)]-N-[(D)Lys]-NH2] (Ac-[Pen]NT[Trp(7-Ph)]K(Ac)[Pen][AEF][Ala(quinolin-3-yl)][αMeK]K(Ac)N[dK]-NH2; disulfide 1-6), the half-life at 20 μM (in the data set “Stability in rat plasma”; in data set [1] (setting [5]); in data set [2] (setting [5])) was greater than 24 h throughout. The “SIF t1/2” value in data set [3] is 24 h. Besides, the IC50 in data set [4] worked out at 2.41 nM.

On to `CC(=O)NCCCC[C@@H]1NC(=O)[C@H](Cc2c[nH]c3c(-c4cccc(C)c4)cccc23)NC(=O)[C@H]([C@@H](C)O)NC(=O)[C@H](CC(N)=O)NC(=O)[C@@H](NC(C)=O)C(C)(C)SSC(C)(C)[C@@H](C(=O)N[C@@H](Cc2ccc(OCCN)cc2)C(=O)N[C@@H](Cc2ccc3ccccc3c2)C(=O)N[C@@](C)(CCCCN)C(=O)N[C@@H](CCCCNC(C)=O)C(=O)N[C@@H](CC(N)=O)C(=O)N[C@H](CCCCN)C(N)=O)NC1=O` [Peptide 7, Ac-[Pen]-N-T-[W(7-(3-MePh))]-[Lys(Ac)]-[Pen]-Phe[4-(2-aminoethoxy)]-[2-Nal]-[a-MeLys]-[Lys(Ac)]-N-[(D)Lys)]-NH2] (Ac-[Pen]NT[X3]K(Ac)[Pen][AEF][2Nal][αMeK]K(Ac)N[dK]-NH2; disulfide 1-6), for which the half-life at 20 μM (in the data set “Stability in rat plasma” (pooled); in data set [1]; in data set [2]) was greater than 24 h in each case. The “SIF t1/2” value in data set [3] is 24 h. In addition, the half-maximal inhibitory concentration (IC50) in data set [4] was determined as 5.87 nM.

For `CC(=O)NCCCC[C@@H]1NC(=O)[C@H](Cc2c[nH]c3c(-c4ccccc4)cccc23)NC(=O)[C@H]([C@@H](C)O)NC(=O)[C@H](CC(N)=O)NC(=O)[C@@H](NC(C)=O)C(C)(C)SSC(C)(C)[C@@H](C(=O)N[C@@H](Cc2ccc(OCCN)cc2)C(=O)N[C@@H](Cc2cnc3ccccc3c2)C(=O)NC2(C(=O)N[C@@H](CCC(=O)O)C(=O)N[C@@H](CC(N)=O)C(=O)N[C@H](CC(C)C)C(N)=O)CCOCC2)NC1=O` [Peptide 15, Ac-[Pen]-N-T-[W(7-Ph)]-[Lys(Ac)]-[Pen]-Phe[4-(2-aminoethoxy)]-[3Quin]-[THP]-E-N-[(D)Leu]-NH2] (Ac-[Pen]NT[Trp(7-Ph)]K(Ac)[Pen][AEF][Ala(quinolin-3-yl)][Thp]EN[dL]-NH2; disulfide 1-6), the half-life at 20 μM (in the data set “Stability in rat plasma”; in data set [1] (setting [5]); in data set [2] (setting [5])) was greater than 24 h each time. For the same molecule, the “SIF t1/2” value in data set [3] is 24 h. For the same molecule, inhibition in data set [4] was half-maximal at 2.44 nM (IC50).

Consider `CC(=O)NCCCC[C@@H]1NC(=O)[C@H](Cc2c[nH]c3c(-c4ccccc4)cccc23)NC(=O)[C@H]([C@@H](C)O)NC(=O)[C@H](CC(N)=O)NC(=O)[C@@H](NC(C)=O)C(C)(C)SSC(C)(C)[C@@H](C(=O)N[C@@H](Cc2ccc(OCCN)cc2)C(=O)N[C@@H](Cc2cnc3ccccc3c2)C(=O)N[C@@](C)(CCCCN)C(=O)N[C@@H](CCCCNC(C)=O)C(=O)N[C@@H](CC(N)=O)C(=O)N[C@H](CC(C)C)C(N)=O)NC1=O` [Peptide 16, Ac-[Pen]-N-T-[W(7-Ph)]-[Lys(Ac)]-[Pen]-Phe[4-(2-aminoethoxy)]-[3Quin]-[a-MeLys]-[Lys(Ac)]-N-[(D)Leu]-NH2] (Ac-[Pen]NT[Trp(7-Ph)]K(Ac)[Pen][AEF][Ala(quinolin-3-yl)][αMeK]K(Ac)N[dL]-NH2; disulfide 1-6), for which the half-life at 20 μM (in “Stability in rat plasma”; in data set [1] (setting [5]); in data set [2] (setting [5])) was greater than 24 h in each case. Besides, the “SIF t1/2” value in data set [3] is 24 h. The molecule further displayed a half-inhibitory concentration (IC50) in data set [4] of 2.9 nM.

Values taken from patent US20230129095A1, “PEPTIDE INHIBITORS OF INTERLEUKIN-23 RECEPTOR AND THEIR USE TO TREAT INFLAMMATORY DISEASES” (Protagonist Therapeutics, Inc., priority 2020, published 2023).
